How the values were obtained:
Miapaca = experiment: Drug combination assay (MTT, CalcuSyn) of Rad001 and CBD in Miapaca; assay type: cell-based, Homo sapiens
Protocol: For the study of the synergism between Rad001 and CBD on pancreatic cell lines Miapaca was tested, the cells were seeded in 96-multiwell plates at the density of 3.8 10^3 cells/well. After 24 hr incubation at 37° C., the cells were treated with different concentrations of Rad001 and CBD. Different molar ratios between two drugs in different sequences of administration were tested, (Rad001 for 48 h and CBD for 72 h or Rad001 for 72 h and CBD for 48 h and in co-administration for 72 h.
The proliferative response was estimated by colorimetric 3-(4,5 di-methylthiazol-2-yl)-2,5-diphenyltetrazolium bromide (MIT) test. MTT conversion to formazan by metabolically viable cells was monitored by spectrophotometer at an optical density of 570 nm. Each data point represents the average of three separate experiments with each experiment containing four wells. Drug combination studies were based on concentration-effect curves generated as a plot of the fraction of unaffected (surviving) cells versus drug concentration after treatment.
To explore the relative contribution of each agent to the synergism equi-active doses of […] were tested (IC50). Assessment of synergy was performed quantitating drug interaction by Calcusyn computer program (Biosoft, Ferguson, MO). Combination index (CI) values of <1, 1, and >1 indicate synergy, additivity and antagonism, respectively.
Dose reduction index (DRI) representing the measure of how much the dose of each drug in a combination may be reduced at a given effect level compared with the doses of each drug alone.
The effects of the pharmacological combination between CBD and RAD001 on the proliferation MIAPACA cell lines, using MTT assay were studied. The data obtained were processed with dedicated program, CalcuSyn (Chou and Talalay, Biosoft, Oregon, USA), which measures synergism.
The specific contribution of CBD and Rad001 on the cytotoxic effect of the combination of drugs was analyzed by calculating the potentiation factor (PF) defined as the ratio of the IC50 of either CBD or Rad001 alone to the IC50 of CBD and Rad001 in combination. A higher PF indicates a greater cytotoxicity.

[1] = stomatitis, infections, rash, fatigue, diarrhoea, oedema, abdominal pain, nausea, fever, asthenia, cough, headache, decreased appetite; cited from earlier work

- IC50 (Miapaca; Homo sapiens, MIA PaCa-2, Miapaca, 50% effect level, read-out: Dose of drug alone): 2.6 µM
SMILES: CO[C@H]1C[C@@H]2CC[C@@H](C)[C@@](O)(O2)C(=O)C(=O)N2CCCC[C@H]2C(=O)O[C@H]([C@H](C)C[C@@H]2CC[C@@H](OCCO)[C@H](OC)C2)CC(=O)[C@H](C)/C=C(\C)[C@@H](O)[C@@H](OC)C(=O)[C@H](C)C[C@H](C)/C=C/C=C/C=C/1C [Rad001, Everolimus, reference compound]
- DRI50 (Miapaca; Miapaca, Rad/CBD combination, dose reduction index): Rad 2.1
- potentiation factor (PF) (Miapaca; ratio of IC50 alone to IC50 of CBD and Rad001 in combination): 4
- incidence of most common adverse reactions [1]: ≥ 30%

From patent US12263139B2, “Use of cannabidiol in the treatment of tuberous sclerosis complex” (Jazz Pharmaceuticals Research UK Limited, priority 2017, dated 2025)
